Converted amounts (≈) assume the structure as drawn. Like-named read-outs stand apart in the source and are kept apart here.
Key:
E. coli GC 2272 = experiment: MIC, broth microdilution; settings: Escherichia coli
Experimental: (§1) Antimicrobial susceptibility testing. The in vitro activities of the antibiotics are determined by the broth microdilution method as recommended by the National Committee for Clinical Laboratory Standards (NCCLS) (1). Mueller-Hinton II broth (MHBII)(BBL Cockeysville, Md.) is the medium employed in the testing procedures. Microtiter plates containing serial dilutions of each antimicrobial agent are inoculated with each organism to yield the appropriate density (10^5 CFU/ml) in a 100 μl final volume. The plates are incubated for 18-22 hours at 35° C. in ambient air.
(§2) Representative compounds were first incubated in mouse serum for an hour prior to the in vitro testing against a panel of selected gram-positive and gram-negative bacteria strains. All compounds were also pre-incubated in water for an hour prior to testing as control. Representative compounds of Formula I were incubated in human serum prior to MIC determination.

S. pneumoniae+ GC 4465 = experiment: MIC, broth microdilution; settings: Streptococcus pneumoniae
E. faecalis GC 4555 = experiment: MIC, broth microdilution; settings: Enterococcus faecalis
E. coli GC 2236 = experiment: MIC, broth microdilution; settings: Escherichia coli
E. coli GC 4559 = experiment: MIC, broth microdilution; settings: Escherichia coli
S. pyogenes GC 4563 = experiment: MIC, broth microdilution; settings: Streptococcus pyogenes
S. aureus GC 1131 = experiment: MIC, broth microdilution; settings: Staphylococcus aureus
E. coli GC 2203 = experiment: MIC, broth microdilution; settings: Escherichia coli
P. aeruginosa GC 2214 = experiment: MIC, broth microdilution; settings: Pseudomonas aeruginosa
Experimental: as §1
(§3) Representative compounds were first incubated in mouse serum for an hour prior to the in vitro testing against a panel of selected gram-positive and gram-negative bacteria strains. All compounds were also pre-incubated in water for an hour prior to testing as control.

E. faecalis GC 2265 = experiment: MIC, broth microdilution; settings: Enterococcus faecalis
Experimental: as §1, §3

E. coli GC 2232 = experiment: MIC, broth microdilution; settings: Escherichia coli
E. coli GC 2234 = experiment: MIC, broth microdilution; settings: Escherichia coli
E. faecalis GC 2267 = experiment: MIC, broth microdilution; settings: Enterococcus faecalis
S. aureus GC 6335 = experiment: MIC, broth microdilution; settings: Staphylococcus aureus
Staph. aureus Smith = experiment: In vivo activity (oral, iv; ED50) against Staph. aureus Smith in mice
Experimental: Representative examples of compounds of Formula I were tested for the oral efficacy using S. aureus Smith in mice.

S. pneumoniae* GC 4465 = experiment: MIC, broth microdilution; settings: Streptococcus pneumoniae
Experimental: as §1, §2

S. epidermidis GC 4935 = experiment: MIC, broth microdilution; settings: Staphylococcus epidermidis
E. coli GC 3226 = experiment: MIC, broth microdilution; settings: Escherichia coli
S. agalactiae GC 4564 = experiment: MIC, broth microdilution; settings: Streptococcus agalactiae
E. coli GC 2271 = experiment: MIC, broth microdilution; settings: Escherichia coli
[1] = read-out: MINIMAL INHIBITORY CONCENTRATION MIC, Human Serum
[2] = read-out: MINIMAL INHIBITORY CONCENTRATION MIC, Mouse Serum
[3] = read-out: MINIMAL INHIBITORY CONCENTRATION MIC, Water

CN(C)c1cc(NC(=O)CN(C(=O)OCOC(=O)c2ccc(F)cc2)C(C)(C)C)c(O)c2c1C[C@H]1C[C@H]3[C@H](N(C)C)C(O)=C(C(N)=O)C(=O)[C@@]3(O)C(O)=C1C2=O [Example 52, ({[(2-{[(5aR,6aS,7S,10aS)-9-(aminocarbonyl)-4,7-bis(dimethylamino)-1,8,10a,11-tetrahydroxy-10,12-dioxo-5,5a,6,6a,7,10,10a,12-octahydrotetracen-2-yl]amino}-2-oxoethyl)(tert-butyl)amino]carbonyl}oxy)methyl 4-fluorobenzoate]
MIC (E. coli GC 2272; GC2272, read-out: MINIMAL INHIBITORY CONCENTRATION MIC, Human Serum): 4 µg/mL (≈ 5.12 µM)
MIC (E. coli GC 2272; GC2272, read-out: MINIMAL INHIBITORY CONCENTRATION MIC, Mouse Serum): 0.5 µg/mL (≈ 0.64 µM)
MIC (E. coli GC 2272; GC2272, read-out: MINIMAL INHIBITORY CONCENTRATION MIC, Water): 4 µg/mL (≈ 5.12 µM)
MIC (S. pneumoniae+ GC 4465; [1]): 4 µg/mL (≈ 5.12 µM)
MIC (S. pneumoniae+ GC 4465; [2]): 1 µg/mL (≈ 1.28 µM)
MIC (S. pneumoniae+ GC 4465; [3]): 2 µg/mL (≈ 2.56 µM)
MIC (E. faecalis GC 4555; GC4555, read-out: MINIMAL INHIBITORY CONCENTRATION MIC, Human Serum): 2 µg/mL (≈ 2.56 µM)
MIC (E. faecalis GC 4555; GC4555, read-out: MINIMAL INHIBITORY CONCENTRATION MIC, Mouse Serum): 0.5 µg/mL (≈ 0.64 µM)
MIC (E. faecalis GC 4555; GC4555, read-out: MINIMAL INHIBITORY CONCENTRATION MIC, Water): 4 µg/mL (≈ 5.12 µM)
MIC (E. coli GC 2236; GC2236, read-out: MINIMAL INHIBITORY CONCENTRATION MIC, Human Serum): 8 µg/mL (≈ 10.2 µM)
MIC (E. coli GC 2236; GC2236, read-out: MINIMAL INHIBITORY CONCENTRATION MIC, Mouse Serum): 1 µg/mL (≈ 1.28 µM)
MIC (E. coli GC 2236; GC2236, read-out: MINIMAL INHIBITORY CONCENTRATION MIC, Water): 8 µg/mL (≈ 10.2 µM)
MIC (E. coli GC 4559; GC4559, read-out: MINIMAL INHIBITORY CONCENTRATION MIC, Human Serum): 8 µg/mL (≈ 10.2 µM)
MIC (E. coli GC 4559; GC4559, read-out: MINIMAL INHIBITORY CONCENTRATION MIC, Mouse Serum): 1 µg/mL (≈ 1.28 µM)
MIC (E. coli GC 4559; GC4559, read-out: MINIMAL INHIBITORY CONCENTRATION MIC, Water): 8 µg/mL (≈ 10.2 µM)
MIC (S. pyogenes GC 4563; GC4563, read-out: MINIMAL INHIBITORY CONCENTRATION MIC, Human Serum): 0.25 µg/mL (≈ 0.32 µM)
MIC (S. pyogenes GC 4563; GC4563, read-out: MINIMAL INHIBITORY CONCENTRATION MIC, Mouse Serum): 0.12 µg/mL (≈ 0.153 µM)
MIC (S. pyogenes GC 4563; GC4563, read-out: MINIMAL INHIBITORY CONCENTRATION MIC, Water): 0.25 µg/mL (≈ 0.32 µM)
MIC (S. aureus GC 1131; GC1131, read-out: MINIMAL INHIBITORY CONCENTRATION MIC, Human Serum): 1 µg/mL (≈ 1.28 µM)
MIC (S. aureus GC 1131; GC1131, read-out: MINIMAL INHIBITORY CONCENTRATION MIC, Mouse Serum): 0.5 µg/mL (≈ 0.64 µM)
MIC (S. aureus GC 1131; GC1131, read-out: MINIMAL INHIBITORY CONCENTRATION MIC, Water): 2 µg/mL (≈ 2.56 µM)
MIC (E. coli GC 2203; GC2203, read-out: MINIMAL INHIBITORY CONCENTRATION MIC, Human Serum): 8 µg/mL (≈ 10.2 µM)
MIC (E. coli GC 2203; GC2203, read-out: MINIMAL INHIBITORY CONCENTRATION MIC, Mouse Serum): 0.5 µg/mL (≈ 0.64 µM)
MIC (E. coli GC 2203; GC2203, read-out: MINIMAL INHIBITORY CONCENTRATION MIC, Water): 8 µg/mL (≈ 10.2 µM)
MIC (P. aeruginosa GC 2214; GC2214, read-out: MINIMAL INHIBITORY CONCENTRATION MIC, Human Serum): > 64 µg/mL
MIC (P. aeruginosa GC 2214; GC2214, read-out: MINIMAL INHIBITORY CONCENTRATION MIC, Mouse Serum): 64 µg/mL (≈ 81.9 µM)
MIC (P. aeruginosa GC 2214; GC2214, read-out: MINIMAL INHIBITORY CONCENTRATION MIC, Water): > 64 µg/mL
MIC (E. faecalis GC 2265; GC2265, read-out: MINIMAL INHIBITORY CONCENTRATION MIC, Human Serum): 4 µg/mL (≈ 5.12 µM)
MIC (E. faecalis GC 2265; GC2265, read-out: MINIMAL INHIBITORY CONCENTRATION MIC, Mouse Serum): 1 µg/mL (≈ 1.28 µM)
MIC (E. faecalis GC 2265; GC2265, read-out: MINIMAL INHIBITORY CONCENTRATION MIC, Water): 4 µg/mL (≈ 5.12 µM)
MIC (E. coli GC 2232; GC2232, read-out: MINIMAL INHIBITORY CONCENTRATION MIC, Human Serum): 4 µg/mL (≈ 5.12 µM)
MIC (E. coli GC 2232; GC2232, read-out: MINIMAL INHIBITORY CONCENTRATION MIC, Mouse Serum): 0.5 µg/mL (≈ 0.64 µM)
MIC (E. coli GC 2232; GC2232, read-out: MINIMAL INHIBITORY CONCENTRATION MIC, Water): 8 µg/mL (≈ 10.2 µM)
MIC (E. coli GC 2234; GC2234, read-out: MINIMAL INHIBITORY CONCENTRATION MIC, Human Serum): 4 µg/mL (≈ 5.12 µM)
MIC (E. coli GC 2234; GC2234, read-out: MINIMAL INHIBITORY CONCENTRATION MIC, Mouse Serum): 0.5 µg/mL (≈ 0.64 µM)
MIC (E. coli GC 2234; GC2234, read-out: MINIMAL INHIBITORY CONCENTRATION MIC, Water): 8 µg/mL (≈ 10.2 µM)
MIC (E. faecalis GC 2267; GC2267, read-out: MINIMAL INHIBITORY CONCENTRATION MIC, Human Serum): 4 µg/mL (≈ 5.12 µM)
MIC (E. faecalis GC 2267; GC2267, read-out: MINIMAL INHIBITORY CONCENTRATION MIC, Mouse Serum): 0.5 µg/mL (≈ 0.64 µM)
MIC (E. faecalis GC 2267; GC2267, read-out: MINIMAL INHIBITORY CONCENTRATION MIC, Water): 4 µg/mL (≈ 5.12 µM)
MIC (S. aureus GC 6335; GC6335, read-out: MINIMAL INHIBITORY CONCENTRATION MIC, Human Serum): 2 µg/mL (≈ 2.56 µM)
MIC (S. aureus GC 6335; GC6335, read-out: MINIMAL INHIBITORY CONCENTRATION MIC, Mouse Serum): 1 µg/mL (≈ 1.28 µM)
MIC (S. aureus GC 6335; GC6335, read-out: MINIMAL INHIBITORY CONCENTRATION MIC, Water): 4 µg/mL (≈ 5.12 µM)
ED50 (Staph. aureus Smith; Staphylococcus aureus, in Mus musculus, iv, read-out: ED50 SIV (Staph aureus Smith)): 1.29 mg/kg
ED50 (Staph. aureus Smith; Staphylococcus aureus, in Mus musculus, po, read-out: ED50 SOD (Staph aureus Smith)): 10.7 mg/kg
ED50 (Staph. aureus Smith; Staphylococcus aureus, in Mus musculus, po, read-out: ED50 Staph Smith SOD): 10.7 mg/kg
ED50 (Staph. aureus Smith; iv, read-out: ED50 Staph Smith SIV): 1.29 mg/kg
MIC (S. pneumoniae* GC 4465; [1]): 0.25 µg/mL (≈ 0.32 µM)
MIC (S. pneumoniae* GC 4465; [2]): < 0.06 µg/mL
MIC (S. pneumoniae* GC 4465; [3]): 0.12 µg/mL (≈ 0.153 µM)
MIC (S. epidermidis GC 4935; GC4935, read-out: MINIMAL INHIBITORY CONCENTRATION MIC, Human Serum): 4 µg/mL (≈ 5.12 µM)
MIC (S. epidermidis GC 4935; GC4935, read-out: MINIMAL INHIBITORY CONCENTRATION MIC, Mouse Serum): 1 µg/mL (≈ 1.28 µM)
MIC (S. epidermidis GC 4935; GC4935, read-out: MINIMAL INHIBITORY CONCENTRATION MIC, Water): 4 µg/mL (≈ 5.12 µM)
MIC (E. coli GC 3226; GC3226, read-out: MINIMAL INHIBITORY CONCENTRATION MIC, Human Serum): 16 µg/mL (≈ 20.5 µM)
MIC (E. coli GC 3226; GC3226, read-out: MINIMAL INHIBITORY CONCENTRATION MIC, Mouse Serum): 1 µg/mL (≈ 1.28 µM)
MIC (E. coli GC 3226; GC3226, read-out: MINIMAL INHIBITORY CONCENTRATION MIC, Water): 16 µg/mL (≈ 20.5 µM)
MIC (S. agalactiae GC 4564; GC4564, read-out: MINIMAL INHIBITORY CONCENTRATION MIC, Human Serum): 0.5 µg/mL (≈ 0.64 µM)
MIC (S. agalactiae GC 4564; GC4564, read-out: MINIMAL INHIBITORY CONCENTRATION MIC, Mouse Serum): 0.12 µg/mL (≈ 0.153 µM)
MIC (S. agalactiae GC 4564; GC4564, read-out: MINIMAL INHIBITORY CONCENTRATION MIC, Water): 0.5 µg/mL (≈ 0.64 µM)
MIC (E. coli GC 2271; GC2271, read-out: MINIMAL INHIBITORY CONCENTRATION MIC, Human Serum): 4 µg/mL (≈ 5.12 µM)
MIC (E. coli GC 2271; GC2271, read-out: MINIMAL INHIBITORY CONCENTRATION MIC, Mouse Serum): 0.5 µg/mL (≈ 0.64 µM)
MIC (E. coli GC 2271; GC2271, read-out: MINIMAL INHIBITORY CONCENTRATION MIC, Water): 4 µg/mL (≈ 5.12 µM)

— US20070049564A1 (Wyeth, priority 2005, published 2007)
